From patent USRE37770E1, “Treatment of skin conditions by use of PPARα activators” (The Regents of the University of California, priority 1997, dated 2002)

How the values were obtained:
keratinocytes = assay: Rate of DNA synthesis (3H-thymidine incorporation) in keratinocytes; type: cell-based, Human; details: 10 μM, 24 hours, low calcium (0.03 mM); 16-hour 3H-thymidine period
Experimental: The rate of DNA synthesis was determined by measuring the incorporation of ^3H-thymidine into cellular DNA after 16 hours of incubation with 2 μCi^3H-thymidine per mL of media (110 Ci/mmol methyl-1′,2′-^3H-thymidine (Amersham Laboratories, Arlington Heights, Ill. USA). The cells were then solubilized in 1N NaOH, and the radioactivity in the washed TCA precipitate was quantitated by scintillation spectroscopy.
Using the procedures set forth in the Materials and Methods section above, 25-hydroxycholesterol (10 μM) and 22(R)-hydroxycholesterol (10 μM, were compared with cholesterol (10 μM) and the vehicle alone control), with treatment for 24 hours under low calcium (0.03 mM) condition. The results are shown in the bar graph of FIG. 19.

transglutaminase protein = assay: Transglutaminase protein level in keratinocytes by Western blotting; type: cell-based, Human; details: low calcium (0.03 mM), 24 hours
Experimental: Protein concentration was assessed by protein electrophoresis and Western blotting. Cells were lysed is 2% SDS and the lysate sonicated. Protein determinations were made by use of a Bicinchoninic add protein assay (Pierce Chemical Company, Rockford, Ill. USA). Following protein determination, equal amounts at protein (50 μg) were separated by electrophoresis an 7.5% polyacrylamide gels and electroblotted onto polyvinylidene […] membranes (0.2-μ, obtained from Bio-Rad Laboratories Hercules, Calif., USA). Involucrin protein was detected by incubation over-night at 4° C. C. with a polyclonal rabbit anti-human involucrin antibody (1:1000 dilution). The involucrin-specific bands on the autoradiograms were quantitated by densitometry by densitometry. Transglutaminase protein expression was measured in a similar […], using stacking, sample and running buffers containing 4 M urea, and the gels following electrophoresis were washed in 4 M urea, 25 mM TRIS-HCl, pH 7.4, 7.5 mM NaCl, 0.1 mM dithiothreitol (DTT), and 2 mM ethylenediamine tetraacetic acid for 90 minutes prior to electoblotting, allowing the transglutaminase to be detected by antibody. Specific bands on the autoradiograms were quantified by densitometry. Levels of involucrin and transglutaminase protein were measured in keratinocytes incubated in low calcium (0.03 mM) and treated with the test compounds for 24 hours. The are shown in the bar graph of FIG. 17a, where the test compounds are compared with the vehicle alone (control) and cholesterol, using the same bar indications as in FIGS 14 through 16. […] Cholesterol had no effect.

Steroid Sulfatase = assay: Steroid sulfatase activity in epidermis of treated fetal rat skin explants; type: cell-based, rats; details: clofibrate (300 μM), juvenile hormone III (100 μ), mean of five ± SEM
Experimental: (§1) Epidermis was separated from dermis after incubation in 10 mM ethylenediamine tetraacetic acid (EDTA) in Ca^++- and Mg^++-free phosphate-buffered saline (PBS), pH 7.4, at 37° C. for 30-40 minutes. The tissues were then minced, and homogenized on ice (three times at 15 seconds each with a Polytron homogenizer, followed by sonication twice at ten seconds each at 35% power) in either PBS containing 0.1 mM phenylmethylsulfonyl fluoride (PMSF) and 0.1% Triton X-100 (for β-glucocerebrosidase) or in 10 mM Tris (PH 7.5) containing 0.15 M sucrose and 2 mM EDTA (for steroid sulfatase). β-Glucocerebrosidase activity was measured in the supernatant following centrifugation at 10,000×g for fifteen minutes at 4° C. Steroid sulfatase activity was measured in the microsomal fraction resulting from a […] centrifugation (10 minutes, 4° C.) followed by 60 minutes of 100,000×g ultracentrifugation at 4° C. Protein content was measured by conventional techniques.
Steroid sulfatase activity was measured by incubating 100 μg of microsomal protein in 0.1 M Tris containing 5.6 mM glucose (pH 7.4) with 15 μM, (^3H) dihydroepiandrosterone sulfate (DHEAS) (15 μCi) in a final volume of 1.1 mL The product, (^3H) DHEA, was extracted with benzene and an aliquot counted by scintillation spectrophotometry.
(§2) Skin explants from 17-day fetal rats were incubated for 24 or 48 hours in media individually containing clofibrate (300 μM) and juvenile hormone III […], and control media. Enzyme activity was measured and the results are presented in Table I as the mean values of five determinations±SEM (standard error of the mean). All p values are ≦0.005 compared with controls of the same time period.

[1] = tested on: Skin explants from gestational day 17 rats; assay: Light and electron microscopy of fetal rat skin explants (epidermal maturation); type: cell-based; details: 300 μM, 48 hours
Experimental: Samples for light microscopy were fixed in modified Karnovsky's solution, plastic-embedded, and 0.5 μm sections were stained with toluidine. Samples for electron microscopy were minced into 1 mm^3 pieces, fixed in modified Karnovsky's fixative, and processed. Sections were stained with uranyl acetate and lead citrate, post-fixed in ruthenium tetroxide, and examined using a Zeiss 10A electron microscope.
Explants incubated in various media woe examined by light microscopy. The incubation di included control medium (containing no activators) and various media individually containing 300 μM clofibrate, 100 μM juvenile hormone III, 300 μM oleic acid, 30 μM linoleic acid, 50 μM farnesol, and various concentrations of 9-cis-retinoic acid, all-trans-retinoic acid, and 1,25-dihydroxy vitamin D3.
Observations were then made of the ultrastructural maturation of the outer epidermis in explants that had been incubated in the various media and then post-fixed in ruthenium tetroxide. Media identical to those of the preceding paragraph were used, excluding the retinoic acid-containing and 1,25-dihydroxy vitamin D3-containing media.

β-Glucocerebrosidase = β-Glucocerebrosidase activity in epidermis of treated fetal rat skin explants; type: cell-based, rats; details: clofibrate (300 μM), juvenile hormone III (100 μ), mean of five ± SEM
Experimental: as §1
β-Glucocerebrosidase) activity was assayed using the synthetic substrate 4-methylumbelliferyl β-D-glucoside (4-MUG). The assays were performed in 5 mM sodium taurocholate in citrate-phosphate buffer (pH 5.6) with 0.5 mM 4-MUG for sixty minutes at 37° C., with a final assay volume of 100 μL, and protein concentration of 1-2 mg/mL. The reaction was terminated with 2 mL of carbonate-bicarbonate buffer (pH 10.5). The fluorescence was then measured at […] (excitation) and 450 λ (emission) and compared with a standard 4-methylumbelliferone (4-MU) curve.
as §2

[2] = tested on: Preconfluent keratinocytes; assay: Keratinocyte growth: DNA content (bis-benzimidazole fluorimetry); type: cell-based, human; details: mean of three samples
Experimental: Preconfluent keratinocytes were treated for 48 hours with varying concentrations of clofibrate ranging from 0 (vehicle only) to 400 μM, in both low (0.03 mM) calcium and high (1.2 mM) calcium. The treated keratinocytes were harvested and sonicated, and the resulting homogenates were incubated with 1 μL/mL bis-benzimidazole for two hours in the dark. DNA content was quantified by reading the samples on a spectrofluorimeter. Each value in the table is a mean of three samples.

`C[C@H](CCCC(C)(C)O)[C@H]1CC[C@H]2[C@@H]3CC=C4C[C@@H](O)CC[C@]4(C)[C@H]3CC[C@]12C` [25-hydroxycholesterol] was tested, and the “rate of DNA synthesis” value (keratinocytes) was 50 % of control and the “TG'ase protein level relative to the control” value (transglutaminase protein) was “approximately 1.6 fold”.
In the case of `CCOC(=O)C(C)(C)Oc1ccc(Cl)cc1` [clofibrate, 2-(4-chlorophenoxy)-2-methylpropanoic acid ethyl ester], the “Steroid Sulfatase Activity” value (Steroid Sulfatase; 24-Hour Incubation) was 13.90 ± 1.10 pmol/h/mg, the “Steroid Sulfatase Activity” value (Steroid Sulfatase; 48-Hour Incubation) was 22.51 ± 2.60 pmol/h/mg and the “light microscopy of the epidermis” value [1] was “had both a multi-layered stratum granulosum and a stratum corneum”. For the same compound, the “β-Glucocerebrosidase Activity” value (β-Glucocerebrosidase; 24-Hour Incubation) was 2.97 ± 0.30 nmol/min/mg, the “β-Glucocerebrosidase Activity” value (β-Glucocerebrosidase; 48-Hour Incubation) was 5.35 ± 0.89 nmol/min/mg and the “DNA Content After 48 Hours” value ([2]; Clofibrate 50 μM) was 14.9 ± 1.5 μg/dish. For the same compound, the “DNA Content After 48 Hours” value ([2]; Clofibrate 200 μM) was 12.9 ± 1.1 μg/dish and the “DNA Content After 48 Hours” value ([2]; Clofibrate 400 μM) was 11.0 ± 1.3 μg/dish.
